Results taken from the supplement of paper PMC11451515.

System: P12-Ichikawa
Test: cell viability relative to DMSO control; higher = less cytotoxic
Conditions: 48 h
Procedure, shortened: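 Viability is a per-plate percentage relative to DMSO wells, with cell-free wells as background. CellTiter-Glo One luminescence was read after 48 h at 37°C on 1536-well plates (5 μl) of NOMO1 or SEM (500 cells/well) or P12-Ichikawa (1000 cells/well) leukemia cells. The cells had been adapted for at least four passages in each medium and pin-dosed with library compounds in DMSO from 47 μM to 0.79 nM in 11 threefold steps.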

[1] = HPLM + 10% dialyzed FBS, 0.000781 µM
[2] = HPLM + 10% dialyzed FBS, 0.00234 µM
[3] = HPLM + 10% dialyzed FBS, 0.00702 µM
[4] = HPLM + 10% dialyzed FBS, 0.0211 µM
[5] = HPLM + 10% dialyzed FBS, 0.0632 µM
[6] = HPLM + 10% dialyzed FBS, 0.19 µM
[7] = HPLM + 10% dialyzed FBS, 0.569 µM
[8] = HPLM + 10% dialyzed FBS, 1.71 µM
[9] = HPLM + 10% dialyzed FBS, 5.12 µM
[10] = HPLM + 10% dialyzed FBS, 15.4 µM
[11] = HPLM + 10% dialyzed FBS, 46.1 µM
[12] = RPMI 5 mM glucose + 10% FBS, 0.000781 µM
[13] = RPMI 5 mM glucose + 10% FBS, 0.00234 µM
[14] = RPMI 5 mM glucose + 10% FBS, 0.00702 µM
[15] = RPMI 5 mM glucose + 10% FBS, 0.0211 µM
[16] = RPMI 5 mM glucose + 10% FBS, 0.0632 µM
[17] = RPMI 5 mM glucose + 10% FBS, 0.19 µM
[18] = RPMI 5 mM glucose + 10% FBS, 0.569 µM
[19] = RPMI 5 mM glucose + 10% FBS, 1.71 µM
[20] = RPMI 5 mM glucose + 10% FBS, 5.12 µM
[21] = RPMI 5 mM glucose + 10% FBS, 15.4 µM
[22] = RPMI 5 mM glucose + 10% FBS, 46.1 µM
[23] = RPMI 5 mM glucose + 10% dialyzed FBS, 0.000781 µM
[24] = RPMI 5 mM glucose + 10% dialyzed FBS, 0.00234 µM
[25] = RPMI 5 mM glucose + 10% dialyzed FBS, 0.00702 µM
[26] = RPMI 5 mM glucose + 10% dialyzed FBS, 0.0211 µM
[27] = RPMI 5 mM glucose + 10% dialyzed FBS, 0.0632 µM
[28] = RPMI 5 mM glucose + 10% dialyzed FBS, 0.19 µM
[29] = RPMI 5 mM glucose + 10% dialyzed FBS, 0.569 µM
[30] = RPMI 5 mM glucose + 10% dialyzed FBS, 1.71 µM
[31] = RPMI 5 mM glucose + 10% dialyzed FBS, 5.12 µM
[32] = RPMI 5 mM glucose + 10% dialyzed FBS, 15.4 µM
[33] = RPMI 5 mM glucose + 10% dialyzed FBS, 46.1 µM

Compound | cell viability [1] | cell viability [2] | cell viability [3] | cell viability [4] | cell viability [5] | cell viability [6] | cell viability [7] | cell viability [8] | cell viability [9] | cell viability [10] | cell viability [11] | cell viability [12] | cell viability [13] | cell viability [14] | cell viability [15] | cell viability [16] | cell viability [17] | cell viability [18] | cell viability [19] | cell viability [20] | cell viability [21] | cell viability [22] | cell viability [23] | cell viability [24] | cell viability [25] | cell viability [26] | cell viability [27] | cell viability [28] | cell viability [29] | cell viability [30] | cell viability [31] | cell viability [32] | cell viability [33]
Fc1cc(-c2cccc3ncc(-c4cnn(C5CCNCC5)c4)nc23)cc(F)c1CN1CCOCC1 | 119% | 113% | 122% | 115% | 123% | 118% | 108% | 113% | 68.8% | 57.7% | 28.9% | 122% | 123% | 120% | 118% | 122% | 118% | 118% | 120% | 91.2% | 70.7% | 27.1% | 119% | 122% | 119% | 114% | 110% | 120% | 123% | 101% | 87.2% | 60.1% | 15.1%
O=C(O)c1ccccc1C(=O)Nc1ccc(-c2ccccc2)cc1 | 123% | 118% | 128% | 124% | 128% | 125% | 123% | 119% | 122% | 114% | 108% | – | – | – | – | – | – | – | – | – | – | – | 119% | 123% | 124% | 124% | 138% | 123% | 119% | 124% | 117% | 130% | 113%
Fc1ccc(C(c2ccc(F)cc2)N2CCN(C/C=C/c3ccccc3)CC2)cc1 | 110% | 121% | 111% | 109% | 109% | 114% | 108% | 108% | 103% | 99.1% | 96.5% | 118% | 112% | 109% | 121% | 116% | 119% | 112% | 107% | 110% | 106% | 104% | 113% | 104% | 121% | 109% | 102% | 110% | 114% | 106% | 104% | 98% | 95.2%
CCCCCCCCCCCC(CC1OC(=O)C1CCCCCC)OC(=O)C(CC(C)C)NC=O (stereo unspecified) | 98.6% | 110% | 110% | 105% | 111% | 107% | 119% | 107% | 105% | 84.2% | 3.42% | 105% | 117% | 114% | 120% | 118% | 114% | 114% | 114% | 103% | 85.8% | 10.6% | 101% | 107% | 103% | 108% | 117% | 112% | 116% | 112% | 99.3% | 87.2% | 7.97%
